We go through 13 compounds from BindingDB's records for doi:10.7270/Q25D8Q92 (Burnham Center For Chemical Genomics, 2011).

Bounds are passed on as bounds.

Broadly, the IC50 is the concentration that gives 50% inhibition. Higher therefore signals lower potency.

The target of the assay is T1, Bcl-2-related protein A1 (Mus musculus, UniProt Q07440).
T1 sequence (Q07440 whole entry): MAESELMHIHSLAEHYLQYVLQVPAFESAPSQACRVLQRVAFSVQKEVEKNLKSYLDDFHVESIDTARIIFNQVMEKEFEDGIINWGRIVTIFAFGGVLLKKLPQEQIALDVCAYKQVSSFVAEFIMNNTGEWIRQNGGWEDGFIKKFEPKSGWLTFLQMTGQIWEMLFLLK
The experiment in a line: Bfl-1 inhibitors in counterscreen, dose response, biochemical (AID 504689).
As for `COc1cc(C2c3c(-c4cccs4)n[nH]c3OC(=N)C2C#N)cc(OC)c1O` (stereo not drawn) [SMR000275523], the IC50 was greater than 20 µM. Under `CCOc1ccc(-c2csc(NC(=O)c3cccc(-n4c(O)ccc4O)c3)n2)cc1` [SMR000319795] stands greater than 20 µM; under `C#CCOCCOCCOCCNc1nc(N2CCN(C(=O)[C@H](CCCCN)n3cc([C@@H](N)C(C)CC)nn3)CC2)nc(N2CCN(C(=O)[C@H](Cc3cc4ccccc4[nH]3)n3cc([C@@H](N)CC(C)C)nn3)CC2)n1` (stereo partly drawn) [SMR000391070], greater than 20 µM; under `C#CCOCCOCCOCCNc1nc(N2CCN(C(=O)[C@H](CCCCN)n3cc([C@@H](N)C(C)CC)nn3)CC2)nc(N2CCN(C(=O)[C@H](Cc3ccc(O)cc3)n3cc([C@@H](N)C(C)CC)nn3)CC2)n1` (stereo partly drawn) [SMR000391090], greater than 20 µM.

With `C#CCOCCOCCOCCNc1nc(N2CCN(C(=O)[C@H](CCCCN)n3cc([C@@H](N)CC(C)C)nn3)CC2)nc(N2CCN(C(=O)[C@H](Cc3cc4ccccc4[nH]3)n3cc([C@@H](N)Cc4ccc(O)cc4)nn3)CC2)n1` [SMR000391143], the IC50 was greater than 20 µM. Compound `C#CCOCCOCCOCCNc1nc(N2CCN(C(=O)[C@H](Cc3cc4ccccc4[nH]3)n3cc([C@@H](N)C(C)CC)nn3)CC2)nc(N2CCN(C(=O)[C@H](Cc3cc4ccccc4[nH]3)n3cc([C@@H](N)Cc4ccc(O)cc4)nn3)CC2)n1` (stereo partly drawn) [SMR000391146] yielded an IC50 of 11.7 µM.

In the case of `CC1CC(C)(C)N2C(=O)/C(=N\NC(N)=S)c3cccc1c32` (stereo not drawn) [SMR000414933], the 50% inhibitory concentration (IC50) is greater than 20 µM. Under `CCN(CC)CCOC(=O)c1ccc(N=CC(C#N)c2nc(-c3ccc(OC)c(OC)c3)cs2)cc1` (stereo not drawn) [SMR000434079] stands 3.44 µM.

`C#CCOCCOCCOCCNc1nc(N2CCN(C(=O)C([C@@H](C)CC)n3cc(C(N)COC(=O)C(F)(F)F)nn3)CC2)nc(N2CCN(C(=O)[C@H](CCCCN)n3cc(C(N)CC(C)C)nn3)CC2)n1` (stereo partly drawn) [SMR000453712]: the IC50 is greater than 20 µM. Under `C#CCOCCOCCOCCNc1nc(N2CCN(C(=O)CCCCCCCCCCNC(=O)Cn3cc(CCCCCN)nn3)CC2)nc(N2CCN(C(=O)CCCCCCCCCCNC(=O)Cn3cc(CCCCCN)nn3)CC2)n1` [SMR001231146] stands 13.3 µM; under `C#CCOCCOCCOCCNc1nc(N2CCN(C(=O)CCCCCCCCCCNC(=O)[C@H](CO)n3cc(CCCSC)nn3)CC2)nc(N2CCN(C(=O)CCCCCCCCCCNC(=O)[C@H](CCCCN)n3cc(CCO)nn3)CC2)n1` [SMR001318322], 14.2 µM; under `Cc1cccc2c1C(=NNC(N)=S)C(=O)N2C1OC(CO)C(O)C(O)C1O` (stereo not drawn) [The compound has not trivial name.], greater than 20 µM. Under `NC(=S)NN=C1C(=O)N(C2OC(=O)c3ccccc32)c2ccccc21` (stereo not drawn) [[(Z)-[2-oxo-1-(3-oxo-1H-isobenzofuran-1-yl)-3-indolylidene]amino]thiourea] stands greater than 20 µM.
